# Test results from patent publication US20120328717A1, “PHARMACEUTICAL KIT FOR TREATING NEURONAL DAMAGES” (priority 2011, published 2012).
# Columns and labels:
# [1] = test system: middle cerebral artery occlusion (MCAO) animal models with ischemic strokes; experiment: Evaluation of infarct volume by TTC staining after MCAO and reperfusion; type: in vivo, Sprague-Dawley rats; conditions: Experiment 1; MCAO 90 min, reperfusion 72 hr; single dose: 45 mg/kg MgSO4 i.v. after MCAO or 6 mg/kg nimesulide i.p. before reperfusion
# Protocol: 150 Sprague-Dawley rats (SD rats) weighing 220-250 gm were purchased from the Laboratory Animal Center of National Chung Kung University. In the present experiments, middle cerebral artery occlusion (MCAO) known in the art was performed on SD rats to establish animal models with ischemic strokes by using occluding intra-luminal suture. The process for performing MCAO is briefly described as follows. A segment of 4-O nylon with blunted tip was inserted through the right internal carotid artery to occlude blood flow of middle cerebral artery (MCA). Laser Doppler flowmeter was used to monitor changes of cerebral blood flows in the MCA territory. […] Anesthetic time was limited to 20 minutes to minimize the influence of isoflurane on the outcome of MCAO. After recovery from anesthesia, rats without body asymmetry were regarded as failed MCAO models and excluded from further experiments. After MCAO was established for 90 min, intra-luminal occluder was removed to re-perfuse the brain. […] When SD rats in each group were treated with MCAO for 90 min and reperfusion for 72 hr, infarct volumes were evaluated by TTC staining.
# [2] = test system: middle cerebral artery occlusion (MCAO) animal models with ischemic strokes; experiment: Evaluation of brain edema (brain water content, wet-dry method) after MCAO; type: in vivo, Sprague-Dawley rats; conditions: Experiment 1; 48 hr after MCAO and reperfusion; 45 mg/kg MgSO4 i.v., 6 mg/kg nimesulide i.p.
# Protocol: In the present experiments, middle cerebral artery occlusion (MCAO) known in the art was performed on SD rats to establish animal models with ischemic strokes by using occluding intra-luminal suture. The process for performing MCAO is briefly described as follows. A segment of 4-O nylon with blunted tip was inserted through the right internal carotid artery to occlude blood flow of middle cerebral artery (MCA). Laser Doppler flowmeter was used to monitor changes of cerebral blood flows in the MCA territory. […] Anesthetic time was limited to 20 minutes to minimize the influence of isoflurane on the outcome of MCAO. After recovery from anesthesia, rats without body asymmetry were regarded as failed MCAO models and excluded from further experiments. After MCAO was established for 90 min, intra-luminal occluder was removed to re-perfuse the brain. […] Herein, cerebral edema was determined by measuring the brain water content with the wet-dry method after MCAO was established for 48 hr. […] The difference of water content in ipsilateral and contralateral hemisphere (Δ% of water content) 48 hr after ischemia-reperfusion injury was evaluated with the wet-dry method.
SMILES,infarct volume compared to SVe group [1],"post-ischemia brain edema (Δ% of water content, ipsilateral vs contralateral hemisphere) compared to SVe group [2]"
O=S(=O)([O-])[O-].[Mg+2] [MgSO4],a decrease of infarct volume was not observed,cannot be Observed
"CS(=O)(=O)Nc1ccc([N+](=O)[O-])cc1Oc1ccccc1 [nimesulide, N-(4-Nitro-2-phenoxyphenyl)methane-sulfonamide]",no neuro-protective effect,cannot be Observed
